Paper PMC9503946 (Pharmaceuticals, 2022)
Several values for one entry are separate records, joined by “and”; a condition that tells them apart may be missing. Identical values can stand only once.

Key:
[1] = target: recombinant SARS-CoV-1 nucleocapsid protein (Severe acute respiratory syndrome coronavirus, UniProt P59595); test: biochemical; type: binding
in vitro = settings: human
MRC-5 cells = settings: 72 h; 0.003-100 µM
[2] = target: recombinant SARS-CoV-2 nucleocapsid protein (full-length NP, aa 1–419) (Severe acute respiratory syndrome coronavirus 2, UniProt P0DTC9); test: biochemical; type: binding
A549 cells = settings: 72 h; 0.003-100 µM

Chain of recombinant SARS-CoV-1 nucleocapsid protein (P59595 whole entry, looked up): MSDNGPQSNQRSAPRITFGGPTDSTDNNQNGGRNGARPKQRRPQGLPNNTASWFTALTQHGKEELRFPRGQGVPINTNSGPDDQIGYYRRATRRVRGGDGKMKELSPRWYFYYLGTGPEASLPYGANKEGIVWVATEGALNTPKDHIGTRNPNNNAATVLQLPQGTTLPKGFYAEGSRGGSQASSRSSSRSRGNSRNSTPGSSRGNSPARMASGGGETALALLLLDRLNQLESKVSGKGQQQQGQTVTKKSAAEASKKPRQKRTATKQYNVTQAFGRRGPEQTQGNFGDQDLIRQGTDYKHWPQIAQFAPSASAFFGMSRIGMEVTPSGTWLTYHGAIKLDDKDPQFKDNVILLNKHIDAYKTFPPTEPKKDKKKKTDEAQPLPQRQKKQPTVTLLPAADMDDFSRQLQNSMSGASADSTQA

SMILES | Kd [1] | IC50 (in vitro) | IC50 (cytotoxicity) (MRC-5 cells) | Kd [2] | IC50 (cytotoxicity) (A549 cells)
Cc1ccc2ccccc2c1COc1ccc2c(C)c(CC(=O)N3CCC4(O)CCCCC4C3)c(=O)oc2c1C (stereo not drawn) [Compound 1, 3-[2-(4a-hydroxy-decahydroisoquinolin-2-yl)-2-oxoethyl]-4,8-dimethyl-7-[(2-methylnaphthalen-1-yl)methoxy]-2H-chromen-2-one] | 14.6 ± 0.44 µM | 51 ± 8.13 µM | no toxicity |  | 
Cc1c(CC(=O)N2CCC3(O)CCCCC3C2)c(=O)oc2cc3occ(-c4ccc5ccccc5c4)c3cc12 (stereo not drawn) [Compound 2, 6-[2-(4a-hydroxy-decahydroisoquinolin-2-yl)-2-oxoethyl]-5-methyl-3-(naphthalen-2-yl)-7H-furo [3,2-g]chromen-7-one] |  |  |  | 22.8 ± 1.52 µM | 
Cc1c(CC(=O)N2CCC3(O)CCCCC3C2)c(=O)oc2c(C)c3occ(-c4ccc5ccccc5c4)c3cc12 (stereo not drawn) [Compound 4, 6-[2-(4a-hydroxy-decahydroisoquinolin-2-yl)-2-oxoethyl]-5,9-dimethyl-3-(naphthalen-2-yl)-7H-furo[3,2-g]chromen-7-one] | 0.674 µM and < 1 µM |  |  |  | no toxicity
